Experimental findings from US20230248722A1, “CLOFAZIMINE COMPOSITION AND METHOD FOR THE TREATMENT OR PROPHYLAXIS OF VIRAL INFECTIONS” (priority 2020, published 2023) are described below.

This assay concerns SARS-CoV-2. Type of assay: cell-based. The note with it: in vitro; 2.5 μM (or ~1.2 μg clofazimine/ml).

With `CC(C)/N=c1\cc2n(-c3ccc(Cl)cc3)c3ccccc3nc-2cc1Nc1ccc(Cl)cc1` [clofazimine, N,5-bis(4-chlorophenyl)-3-propan-2-yliminophenazin-2-amine], the “reduce or eliminate viral replication” value is recorded as 40%.
